ChEMBL document CHEMBL1201862, “PubChem BioAssay data set” (2004)
Calls of active or inactive are those of the source.

What was measured:
[1] = viability of HCT116 lacking mutant beta-catenin – cell-based, human colon tumor, dose response (AID 1045); format: functional;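 also: HCT116 colon tumor cells with beta catenin knocked out; cells exposed to compound for 60 hours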
[2] = target: T1, Heat shock factor protein 1 (Mus musculus, UniProt P38532); assay: enhancement of HSF1-driven luciferase signal – cell-based, NIH3T3, luminescence, dose retest, confirmation (AID 435004); format: functional;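 also: stress induced by proteasome inhibitor MG132 added 30 min after compound; luciferase reporter driven by HSF1 response element in NIH3T3 cells; actives raise luminescence as potentiators of the MG132 stress response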
T1 sequence (P38532 whole entry): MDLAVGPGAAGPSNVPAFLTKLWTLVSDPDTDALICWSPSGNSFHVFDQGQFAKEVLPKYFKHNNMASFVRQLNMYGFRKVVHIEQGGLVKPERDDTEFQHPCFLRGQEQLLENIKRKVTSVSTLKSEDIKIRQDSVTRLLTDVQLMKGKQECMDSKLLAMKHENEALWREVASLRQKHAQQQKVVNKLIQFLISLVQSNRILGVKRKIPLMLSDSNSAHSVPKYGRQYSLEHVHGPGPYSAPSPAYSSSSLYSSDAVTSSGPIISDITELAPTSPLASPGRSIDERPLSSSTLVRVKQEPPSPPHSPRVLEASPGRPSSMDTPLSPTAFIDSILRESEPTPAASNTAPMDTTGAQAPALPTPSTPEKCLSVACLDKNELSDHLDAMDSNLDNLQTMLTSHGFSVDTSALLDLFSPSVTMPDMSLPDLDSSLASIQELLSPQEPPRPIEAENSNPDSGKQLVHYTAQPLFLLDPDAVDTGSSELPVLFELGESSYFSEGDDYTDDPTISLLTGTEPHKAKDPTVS

[3] = target: T2, Replicative DNA helicase DnaB (Mycobacterium tuberculosis, UniProt P9WMR3); assay: DnaB intein splicing inhibitors, dose response, biochemical, cell-free fluorescence (AID 449749); format: functional
T2 sequence (P9WMR3 whole entry): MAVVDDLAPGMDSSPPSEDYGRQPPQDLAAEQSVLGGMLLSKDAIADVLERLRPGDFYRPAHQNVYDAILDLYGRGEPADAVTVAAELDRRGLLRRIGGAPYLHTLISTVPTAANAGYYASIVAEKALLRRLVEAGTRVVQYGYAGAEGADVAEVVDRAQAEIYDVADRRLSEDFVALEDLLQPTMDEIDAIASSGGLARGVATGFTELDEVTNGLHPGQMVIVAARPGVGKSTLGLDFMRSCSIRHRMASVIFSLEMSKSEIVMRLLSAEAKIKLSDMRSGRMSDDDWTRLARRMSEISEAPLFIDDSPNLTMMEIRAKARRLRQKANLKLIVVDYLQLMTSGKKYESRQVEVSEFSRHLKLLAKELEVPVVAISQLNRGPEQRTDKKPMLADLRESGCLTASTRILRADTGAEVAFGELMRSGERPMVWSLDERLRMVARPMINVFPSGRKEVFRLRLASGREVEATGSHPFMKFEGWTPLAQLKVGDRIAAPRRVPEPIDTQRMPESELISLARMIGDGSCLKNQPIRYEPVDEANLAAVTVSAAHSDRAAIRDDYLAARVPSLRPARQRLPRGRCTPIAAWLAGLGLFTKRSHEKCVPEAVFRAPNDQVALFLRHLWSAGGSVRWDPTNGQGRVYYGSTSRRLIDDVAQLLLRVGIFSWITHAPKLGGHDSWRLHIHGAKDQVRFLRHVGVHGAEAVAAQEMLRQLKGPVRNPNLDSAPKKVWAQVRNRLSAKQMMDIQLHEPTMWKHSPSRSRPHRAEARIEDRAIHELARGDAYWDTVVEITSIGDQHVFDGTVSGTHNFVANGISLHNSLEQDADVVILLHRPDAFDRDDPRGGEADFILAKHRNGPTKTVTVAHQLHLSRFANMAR

Vero = assay: viability of Vero cells under compound – cytotoxicity control for flavivirus capping enzyme inhibitors (AID 588742); format: functional; conditions: Chlorocebus sabaeus
Protein RecA = target: T3, Protein RecA (Mycobacterium tuberculosis, UniProt P9WHJ3); assay: Fluorescence Cell-Free Homogeneous Dose Retest to Identify Inhibitors of RecA-Intein Splicing Activity. [Related pubchem assays (depositor defined):AID2097, AID2223, AID489010, AID492950]; format: functional
T3 sequence (P9WHJ3 whole entry): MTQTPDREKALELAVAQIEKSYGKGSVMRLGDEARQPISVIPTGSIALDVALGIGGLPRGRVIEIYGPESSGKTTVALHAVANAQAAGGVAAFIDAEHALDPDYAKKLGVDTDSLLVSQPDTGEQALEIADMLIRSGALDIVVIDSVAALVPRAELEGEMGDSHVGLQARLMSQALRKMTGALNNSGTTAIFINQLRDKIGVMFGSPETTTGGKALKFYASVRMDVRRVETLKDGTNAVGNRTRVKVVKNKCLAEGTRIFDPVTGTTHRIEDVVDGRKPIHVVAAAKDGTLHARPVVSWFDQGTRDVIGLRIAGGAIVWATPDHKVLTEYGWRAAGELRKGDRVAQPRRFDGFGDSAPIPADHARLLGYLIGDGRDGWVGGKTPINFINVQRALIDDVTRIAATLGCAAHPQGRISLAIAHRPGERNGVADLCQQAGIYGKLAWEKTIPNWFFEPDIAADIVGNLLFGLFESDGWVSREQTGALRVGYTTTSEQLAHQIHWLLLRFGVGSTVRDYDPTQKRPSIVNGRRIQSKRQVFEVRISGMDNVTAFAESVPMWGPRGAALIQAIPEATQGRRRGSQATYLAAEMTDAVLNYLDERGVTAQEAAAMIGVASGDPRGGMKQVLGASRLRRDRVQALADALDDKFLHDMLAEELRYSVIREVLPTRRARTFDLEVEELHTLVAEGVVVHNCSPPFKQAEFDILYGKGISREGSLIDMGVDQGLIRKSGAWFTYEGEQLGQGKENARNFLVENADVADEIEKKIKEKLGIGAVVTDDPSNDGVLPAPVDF

INS1 = assay: INS-1E survival protection against cytokine death – cell-based, luminescence, retest, dose response (AID 449756); format: functional; conditions: Rattus norvegicus;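 also: cell death triggered by IL-1 beta plus TNF-alpha plus IFN-gamma mixture; protective hits raise ATP signal compared with cytokine alone wells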
[4] = test system: Streptococcus sp. 'group A'; assay: Streptococcus pyogenes SK(-)GAS viability under kanamycin – luminescence, BacTiterGlo, confirmation, counter-screen for streptokinase expression inhibitor project, dose response (AID 1900); format: functional, organism-based
Genome polyprotein = Genome polyprotein (dengue virus type 2, UniProt P29990); assay: flavivirus cap methylation enzyme inhibition – biochemical, confirmation dose response, primary screen (AID 588689); format: functional
Sequence of Genome polyprotein (P29990 2492-3391 limits assumed): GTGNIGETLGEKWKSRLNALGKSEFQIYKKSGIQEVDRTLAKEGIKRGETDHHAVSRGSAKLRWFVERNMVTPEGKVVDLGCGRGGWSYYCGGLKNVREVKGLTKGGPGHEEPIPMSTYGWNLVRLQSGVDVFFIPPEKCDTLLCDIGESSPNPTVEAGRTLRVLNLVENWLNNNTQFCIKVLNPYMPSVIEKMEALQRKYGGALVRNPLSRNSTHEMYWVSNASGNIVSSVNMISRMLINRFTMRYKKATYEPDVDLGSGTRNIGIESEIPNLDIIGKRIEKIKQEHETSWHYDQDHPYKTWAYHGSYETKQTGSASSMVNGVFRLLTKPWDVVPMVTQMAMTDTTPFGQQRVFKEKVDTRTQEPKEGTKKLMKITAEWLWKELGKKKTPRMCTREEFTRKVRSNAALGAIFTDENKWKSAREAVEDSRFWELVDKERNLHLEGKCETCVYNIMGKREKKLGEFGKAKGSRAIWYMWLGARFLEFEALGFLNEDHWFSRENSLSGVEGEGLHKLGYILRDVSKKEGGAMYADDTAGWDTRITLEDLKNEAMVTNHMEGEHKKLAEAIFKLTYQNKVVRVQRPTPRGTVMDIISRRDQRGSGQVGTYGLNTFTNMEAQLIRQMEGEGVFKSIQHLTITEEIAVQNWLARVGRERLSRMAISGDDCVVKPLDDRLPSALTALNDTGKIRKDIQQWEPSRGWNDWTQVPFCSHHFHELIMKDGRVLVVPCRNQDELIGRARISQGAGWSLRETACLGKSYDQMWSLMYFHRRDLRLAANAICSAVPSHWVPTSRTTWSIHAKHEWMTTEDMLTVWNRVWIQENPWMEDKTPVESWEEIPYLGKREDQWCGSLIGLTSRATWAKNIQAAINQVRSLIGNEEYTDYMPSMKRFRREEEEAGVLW

Cc1ccc(NC2=CC(=O)C(=O)c3ccccc32)cc1
EC50 [1]: 4.52 µM (active) | EC50 [2]: 7.04 µM (active) | AC50 [3]: 0.971 µM (active) | CC50 (Vero): 11.4 µM (active) | EC50 (Protein RecA): 0.999 µM (active) | AC50 (INS1): 2.63 µM (active)

O=C(O)c1ccc(S(=O)(=O)/N=C2\C=C(Nc3ccccc3F)C(=O)c3ccccc32)cc1
EC50 [4]: 5.74 µM (active) | EC50 [2]: > 260 µM (inconclusive) | AC50 [3]: 0.146 µM (active) | CC50 (Vero): 26.4 µM (active) | EC50 (Protein RecA): 0.0663 µM (active) | AC50 (INS1): 2.61 µM (active) | IC50 (Genome polyprotein): 11.2 µM (active)
